Data on 16 molecules can be found in patent US20140329863A1 (priority 2011, published 2014).

Each structure is given as a SMILES string. Like-named read-outs stand apart in the source and are kept apart here. Marks after values point to notes of the source that are not given here. Bounds are passed on as bounds.

Data set [1] has as its system PrP^Sc in dividing ScN2a-cl3 cells. The class given is cell-based, mouse. The arrangement: Dividing ELISA pEC50 (μM) 1st Expt. / Dividing ELISA pEC50 (μM) 2nd Expt. / Dividing ELISA pEC50 (μM) 3rd Expt. / Dividing ELISA pEC50 (μM) Mean: unit not given here.
The subject of data set [2] is PrP^Sc in nondividing ScN2a-cl3 cells. The class given is cell-based, mouse.
Data set [3] concerns N2a-cl3 cells. The data set is described as follows: cells. To be noted: Mus musculus.
Data set [4] deals with N2a-cl3 cells.
[5] abbreviates: ScN2a-cl3 dividing cells, 1st determination.
Where [6] appears, read: ScN2a-cl3 dividing cells, 2nd determination.
[7] abbreviates: ScN2a-cl3 dividing cells, 3rd determination.
Where [8] appears, read: read-out: Dividing ELISA EC50 (μM) 1st Expt., ScN2a-cl3 dividing cells, 1st determination.
The mark [9] stands for this setting: read-out: Dividing ELISA EC50 (μM) 2nd Expt., ScN2a-cl3 dividing cells, 2nd determination.
[10] abbreviates: read-out: Dividing ELISA EC50 (μM) 3rd Expt., ScN2a-cl3 dividing cells, 3rd determination.
Setting [11] is: read-out: Dividing ELISA EC50 (μM) Mean, ScN2a-cl3 dividing cells, mean of three determinations.
The mark [12] stands for this setting: read-out: Non-Dividing ELISA EC50 (μM) Mean (n = 3), ScN2a-c13 non-dividing cells, mean n = 3.
Setting [13] is: N2a-cl3, read-out: Dividing Calcein EC50 (μM) Mean (n = 3).
Setting [14] is: ScN2a-cl3 dividing cells, mean of three determinations.
Setting [15] is: Table 29, 2-AMT analogs tested for potency, usually n = 3 or more.

The melting point is the temperature, or range, at which the solid turns liquid.

`COc1ccc(-c2csc(Nc3cccc4ccccc34)n2)cc1OC` [compound 20, [4-(3,4-dimethoxyphenyl)-thiazol-2-yl]-naphthalen-1-yl-amine] gave a melting point of 244 to 246 °C. For the same molecule, the “Dividing ELISA pEC50 (μM) 1st Expt.” value in data set [1] (setting [5]) is over 4.5. Also, the “Dividing ELISA pEC50 (μM) 2nd Expt.” value in data set [1] (setting [6]) is reported as over 4.5. Moreover, the “Dividing ELISA pEC50 (μM) 3rd Expt.” value in data set [1] (setting [7]) is given as over 4.5. Moreover, the EC50 in data set [1] (setting [8]) was over 32 µM. Moreover, in data set [1] (setting [9]), the EC50 was over 32 µM. In addition, the EC50 in data set [1] (setting [10]) was over 32 µM. The EC50 in data set [1] (setting [11]) was over 32 µM. The EC50 in data set [2] (setting [12]) was over 32 µM. Also, in data set [3] (setting [13]), the EC50 is over 32 µM.

Take `Cc1ccc2[nH]c3c(c2c1)CCCC3NCCCN(C)C` (centres unmarked) [IND-23308]: the “Inhibition of Baseline PrP^5c (%) Dividing Cells ELISA” value in data set [1] (SPC assay, dividing cells) was 88%. Also, the EC50 in data set [1] (read-out: EC50, PrP^Sc ELISA in dividing ScN2a-c13 cells) is 1.58 µM; in data set [2] (read-out: EC50, PrP^Sc ELISA in stationary-phase (nondividing) cells), 7.5 µM; in data set [3] (N2a-cl3, read-out: potency in cell viability, dividing cells) it was over 10 µM; in data set [3] (N2a-cl3, read-out: potency in cell viability, stationary-phase cells), over 10 µM. The HTS % inhibition in data set [2] (HTS, nondividing cells) stood at 70%. Moreover, in data set [2] (SPC assay, nondividing cells), the “Inhibition of Baseline PrP^5c (%) Non-dividing Cells ELISA” value is reported as 94^d %. This molecule also registered an SPC % inhibition in data set [2] (SPC assays, nondividing cells) of 94%. For the same molecule, the “Dividing Cells V (cell viability percentages)” value in data set [4] came to 30%. Besides, the “Effect on cell viability (EC50)” value in data set [4] is reported as “no effect on cell viability”. Further, in data set [4], the “Non-dividing Cells V (cell viability percentages)” value is listed as 12%.

Turning to `c1ccc(-c2cc(-c3csc(Nc4ccncc4)n3)on2)cc1` [compound 45, [4-(3-Phenylisoxazol-5-yl)-thiazol-2-yl]-pyridin-4-yl-amine], the melting point lay within 269 to 270 °C. Moreover, in data set [1] (setting [5]), the “Dividing ELISA pEC50 (μM) 1st Expt.” value was found to be 5.50. For the same molecule, the “Dividing ELISA pEC50 (μM) 2nd Expt.” value in data set [1] (setting [6]) turned out to be 5.49. Also, the “Dividing ELISA pEC50 (μM) 3rd Expt.” value in data set [1] (setting [7]) worked out at 5.17. In data set [1] (setting [14]), the “Dividing ELISA pEC50 (μM) Mean” value is 5.38. Moreover, the EC50 in data set [1] (setting [8]) was found to be 3.16 µM. The EC50 in data set [1] (setting [9]) stood at 3.25 µM. In addition, the EC50 in data set [1] (setting [10]) turned out to be 6.83 µM. The EC50 in data set [1] (setting [11]) amounted to 4.42 µM. Moreover, the EC50 in data set [2] (setting [12]) is over 32 µM. The EC50 in data set [3] (setting [13]) was over 32 µM.

Consider `Cc1ccc(Nc2nc(-c3ccc(-c4ccccn4)s3)cs2)nc1` [compound 26, (5-Methylpyridin-2-yl)-[4-(5-pyridin-2-yl-thiophen-2-yl)-thiazol-2-yl]-amine], for which the melting point fell in the range of 197 to 199 °C. The “Dividing ELISA pEC50 (μM) 1st Expt.” value in data set [1] (setting [5]) is reported as 5.80. In addition, the “Dividing ELISA pEC50 (μM) 2nd Expt.” value in data set [1] (setting [6]) was determined as 6.06. Also, in data set [1] (setting [7]), the “Dividing ELISA pEC50 (μM) 3rd Expt.” value worked out at 5.91. Besides, the “Dividing ELISA pEC50 (μM) Mean” value in data set [1] (setting [14]) amounted to 5.92. Further, the EC50 in data set [1] (setting [8]) was 1.58 µM. Moreover, the EC50 in data set [1] (setting [9]) is 0.879 µM. Further, the EC50 in data set [1] (setting [10]) came out at 1.22 µM. The EC50 in data set [1] (setting [11]) came out at 1.23 µM. For the same molecule, in data set [2] (setting [12]), the EC50 is over 32 µM. Also, in data set [3] (setting [13]), the EC50 is over 32 µM.

With `COc1ccc(-c2csc(Nc3ccc(C)cn3)n2)c(OC)c1` [IND74, [4-(2,4-Dimethoxy-phenyl)-thiazol-2-yl]-(5-methyl-pyridin-2-yl)-amine], the melting point is 157 to 158 °C. The molecule further came in with an EC50 in data set [1] (AMT analogs tested for potency) of 3.13 µM. Moreover, the EC50 in data set [1] (setting [15]) worked out at 3.13 µM.

Molecule `COc1ccc(Nc2nc(-c3ccncc3)cs2)nc1` [IND119, (5-Methoxy-pyridin-2-yl)-(4-pyridin-4-yl-thiazol-2-yl)-amine] yielded a melting point of 213 to 214 °C. In addition, the EC50 in data set [1] (AMT analogs tested for potency) turned out to be 1.32 µM.

`Cc1ccc(Nc2nc(-c3cccc(C#N)c3)cs2)nc1` [IND38, 3-[2-(5-Methyl-pyridin-2-ylamino)-thiazol-4-yl]-benzonitrile]: the melting point lay within 268 to 272 °C. Besides, in data set [1] (AMT analogs tested for potency), the EC50 amounted to 2.29 µM. This molecule showed an EC50 in data set [1] (setting [15]) of 2.29 µM.

Turning to `COc1ccc(Nc2nc(-c3ccc(-c4ccccc4)cc3)cs2)nc1` [IND122, (4-Biphenyl-4-yl-thiazol-2-yl)-(5-methoxy-pyridin-2-yl)-amine], the melting point was 212 to 213 °C. The EC50 in data set [1] (AMT analogs tested for potency) was determined as 0.432 µM.

`COc1ccc(Nc2nc(-c3cc4ccccc4o3)cs2)nc1` [IND121, (4-Benzofuran-2-yl-thiazol-2-yl)-(5-methoxy-pyridin-2-yl)-amine] returned a melting point of 185 to 186 °C. In data set [1] (AMT analogs tested for potency), this molecule registered an EC50 of 1.74 µM.

For the molecule `Cc1ccc(Nc2nc(-c3ccc(OC(F)(F)F)cc3)cs2)nc1` [IND26, (5-Methyl-pyridin-2-yl)-[4-(4-trifluoromethoxy-phenyl)-thiazol-2-yl]-amine], the melting point lay within 205 to 207 °C. The same molecule gave an EC50 in data set [1] (AMT analogs tested for potency) of over 10 µM. In data set [1] (setting [15]), the EC50 is over 10 µM.

Take `Cc1ccnc(Nc2nc(-c3ccc(OC(F)(F)F)cc3)cs2)c1` [IND78, (4-Methyl-pyridin-2-yl)-[4-(4-trifluoromethoxy-phenyl)-thiazol-2-yl]-amine]: the melting point was 275 to 282 °C. This molecule also had an EC50 in data set [1] (AMT analogs tested for potency) of over 32 µM. In data set [1] (setting [15]), this molecule returned an EC50 of over 32 µM.

For `COc1ccnc(Nc2nc(-c3ccncc3)cs2)c1` [IND111, (4-Methoxy-pyridin-2-yl)-(4-pyridin-4-yl-thiazol-2-yl)-amine], the melting point was in the range of 190 to 192 °C. Further, in data set [1] (AMT analogs tested for potency), the EC50 was 0.605 µM.

With `COc1ccc(-c2csc(Nc3ccc(C)cn3)n2)cc1OC` [compound 14, [4-(3,4-dimethoxyphenyl)-thiazol-2-yl]-(5-methylpyridin-2-yl)-amine], the EC50 in data set [1] (setting [8]) was 0.974 µM; in data set [1] (setting [9]), 0.577 µM; in data set [1] (setting [10]) it was 0.815 µM; in data set [1] (setting [11]), 0.789 µM; in data set [2] (setting [12]), over 32 µM; in data set [3] (setting [13]) it was over 32 µM.

For the molecule `Cc1ccnc(Nc2nc(-c3cc(-c4ccccc4)no3)cs2)c1` [compound 43, (4-Methylpyridin-2-yl)-[4-(3-phenylisoxazol-5-yl)-thiazol-2-yl]-amine], the “Dividing ELISA pEC50 (μM) 1st Expt.” value in data set [1] (setting [5]) is given as 5.98. Also, the “Dividing ELISA pEC50 (μM) 2nd Expt.” value in data set [1] (setting [6]) amounted to 5.96. Besides, the “Dividing ELISA pEC50 (μM) 3rd Expt.” value in data set [1] (setting [7]) amounted to 5.78. Further, the “Dividing ELISA pEC50 (μM) Mean” value in data set [1] (setting [14]) came out at 5.90. The EC50 in data set [1] (setting [8]) was 1.05 µM; in data set [1] (setting [9]) it was 1.1 µM; in data set [1] (setting [10]), 1.67 µM; in data set [1] (setting [11]) it was 1.28 µM; in data set [2] (setting [12]) it was over 32 µM; in data set [3] (setting [13]), over 32 µM.

With `Cc1ccc(Nc2nc3c(s2)Cc2ccccc2-3)nc1` [compound 38, (8H-Indeno[1,2-d]thiazol-2-yl)-(5-methylpyridin-2-yl)-amine], in data set [1] (setting [5]), the “Dividing ELISA pEC50 (μM) 1st Expt.” value amounted to 5.70. For the same molecule, the “Dividing ELISA pEC50 (μM) 2nd Expt.” value in data set [1] (setting [6]) came to 5.52. In addition, in data set [1] (setting [7]), the “Dividing ELISA pEC50 (μM) 3rd Expt.” value is 5.63. In data set [1] (setting [14]), the “Dividing ELISA pEC50 (μM) Mean” value turned out to be 5.62. Besides, the EC50 in data set [1] (setting [8]) was 1.99 µM; in data set [1] (setting [9]), 2.99 µM; in data set [1] (setting [10]) it was 2.34 µM; in data set [1] (setting [11]), 2.44 µM; in data set [2] (setting [12]) it was over 32 µM; in data set [3] (setting [13]) it was over 32 µM.

In turn, `Cc1ccnc(Nc2nc(-c3ccc4c(c3)OCCO4)cs2)c1` [IND57, [4-(2,3-Dihydro-benzo[1,4]dioxin-6-yl)-thiazol-2-yl]-(4-methyl-pyridin-2-yl)-amine] returned a melting point of 230 to 240 °C. The molecule also showed an EC50 in data set [1] (AMT analogs tested for potency) of over 10 µM. Moreover, in data set [1] (setting [15]), the EC50 is over 10 µM.
